Results on five compounds are retold here after patent publication US4990522A, “Esterified ephedrine derivatives with prolonged antiulcer activity” (Establissement Texcontor, priority 1987, dated 1991).

Data set [1] concerns ulcers induced by ligature of the pylorus. Description: Antiulcer activity against ulcers induced by ligature of the pylorus (Shay test). As to conditions: rat, oral. The class given is in vivo, rat (Sprague Dawley). The method, then: 2. ANTIULCER ACTIVITY against ulcers induced by ligature of the pylorus (Shay test): Groups of 10 Sprague Dawley rats of body weight between 200 and 250 grams were placed in cages under conditions of standard temperature (21°±2° C.), standard relative humidity (60-70%) and standard light (12 hours per day).
The animals were fed with rat pellets and with water at will.
The derivatives to be tested were administered orally 6, 12, 24 and 36 hours before ligature of the pylorus, after dispersion in physiological solution using Tween 80 as dispersant in a quantity of 1% and carboxymethylcellulose in a quantity of 0.2%. The volume administered was 10 ml/kg.
Before ligature, the rats had been kept without food for 18 hours but with free access to water, the pylorus ligature then being made under ether anesthetic, with suture of the peritoneum and of the abdominal wall.
The animals were then kept without food or water, and 18 hours after ligature were sacrificed using chloroform, their stomachs then being withdrawn and opened along the small curvature.
The gastric surface was extended to observe the ulcers, the evaluation being made by measuring their maximum width.

A short description of data set [2]: Acute toxicity in rats, endoperitoneal administration (LD50, Lichtfield and Wilcoxon). Also on record: species or system rat (Wistar). As to conditions: in vivo, ip, rat, mortality within eight days. The method, then:
(§1) Acute toxicity was determined on Swiss albino mice having an average weight of about 20 grams and on Wistar rats having an average weight of 150±10 grams by endoperitoneal administration. All animals were kept fasting for 12 hours before the trial. For the trial, 10 animals, namely 5 males and 5 females, were used for each dose level.
(§2) The LD50 values, expressed as mg/kg, are calculated on the basis of the mortality determined within eight days from administration, in accordance with the Lichtfield and Wilcoxon method.

Data set [3] in a line: Acute toxicity in mice, endoperitoneal administration (LD50, Lichtfield and Wilcoxon). More on the design: species or system mouse (Swiss albino). As to conditions: in vivo, ip, mouse, mortality within eight days. The method, then:
as §1, §2

Data set [4] relates to ulcers induced by cold stress. Briefly: Antiulcer activity against ulcers induced by cold stress. The class given is in vivo, rat (Wistar). As to conditions: rat, oral. As for the experimental part: 3. ANTIULCER ACTIVITY against ulcers induced by cold stress: This trial was carried out on Wistar rats weighing about 300 grams each.
The animals were divided randomly into groups of 10 animals each and kept without food for 18 hours before the trial, but had unrestricted water. […]
After ligature, the animals were placed in a refrigerator at a temperature of between 2° C. and 4° C. for two hours.
After this time the rats were sacrificed, their stomachs were withdrawn and opened along the small curvature, and the gastric mucosa checked.
The number of ulcers was counted and their relative diameters measured. From these individual data the mean value for each treatment group was obtained and the inhibition capacity calculated as a percentage relative to the control group, using the following formula: [formula] where C is the mean value in mm for the control group and T the mean value for the group treated with the derivative under examination.

The conditions of data set [5]: prior art, cited from earlier work.
For data set [6] the following is noted: species not given, prior art; cited from earlier work.
Where [7] appears, read: 6 h before pylorus ligature, read-out: ED50 by oral administration at 6 h before pylorus ligature.
Where [8] appears, read: 12 h before pylorus ligature, * P < 0.05 versus WAS 4303 (so in the source), read-out: ED50 by oral administration at 12 h before pylorus ligature.
The mark [9] stands for this setting: 24 h before pylorus ligature, * P < 0.05 versus WAS 4303 (so in the source), read-out: ED50 by oral administration at 24 h before pylorus ligature.
The mark [10] stands for this setting: 36 h before pylorus ligature, * P < 0.05 versus WAS 4303 (so in the source), read-out: ED50 by oral administration at 36 h before pylorus ligature.
Where [11] appears, read: 6 h before cold stress, read-out: ED50 by oral administration at 6 h before commencement of cold stress.
Setting [12] is: 12 h before cold stress, * P < 0.05 versus WAS 4303 (so in the source), read-out: ED50 by oral administration at 12 h before commencement of cold stress.
[13] abbreviates: 24 h before cold stress, * P < 0.05 versus WAS 4303 (so in the source), read-out: ED50 by oral administration at 24 h before commencement of cold stress.
Where [14] appears, read: 36 h before cold stress, * P < 0.05 versus WAS 4303 (so in the source), read-out: ED50 by oral administration at 36 h before commencement of cold stress.

Read-outs that look alike come from different tables or passages of the source.

Usually LD50 stands for the dose at which mortality reaches 50%. The low end stands for a more toxic substance, the high end for a less toxic substance.

In the case of `C[C@@H]([C@H](OC(=O)c1cccs1)c1ccccc1)N(C)CC=C1c2ccccc2CCc2ccccc21` (relative stereo) [ET 2004], the ED50 in data set [1] (setting [7]) came to 0.5 mg/kg; in data set [1] (setting [8]), 0.4 mg/kg; in data set [1] (setting [9]), 0.6 mg/kg; in data set [1] (setting [10]), 1 mg/kg; in data set [4] (setting [11]), 0.6 mg/kg; in data set [4] (setting [12]), 0.8 mg/kg. In addition, the ED50 stood at 1.4 mg/kg in data set [4] (setting [13]) and 1.8 mg/kg in data set [4] (setting [14]). For the same compound, the LD50 at 192 h in data set [2] is 681 mg/kg; in data set [3], 630 mg/kg.

With `C[C@@H]([C@H](OC(=O)C(N)Cc1cnc[nH]1)c1ccccc1)N(C)CC=C1c2ccccc2CCc2ccccc21` (some centres unmarked) [ET 2002], the ED50 in data set [1] (setting [7]) worked out at 0.4 mg/kg; in data set [1] (setting [8]), 0.5 mg/kg; in data set [1] (setting [9]) it was 0.8 mg/kg; in data set [1] (setting [10]) it was 1.1 mg/kg; in data set [4] (setting [11]), 0.7 mg/kg; in data set [4] (setting [12]), 1 mg/kg. The results for the ED50 in data set [4] (setting [13]) and in data set [4] (setting [14]) were 1.4 mg/kg and 1.9 mg/kg, respectively. Further, the LD50 at 192 h came out at 590 mg/kg in data set [2] and 535 mg/kg in data set [3].

For the compound `C[C@@H]([C@H](O)c1ccccc1)N(C)CC=C1c2ccccc2CCc2ccccc21` (relative stereo) [WAS 4304, reference compound], the ED50 in data set [1] (setting [7]) worked out at 0.2 mg/kg; in data set [1] (setting [8]) it was 1.1 mg/kg; in data set [1] (setting [9]), 1.8 mg/kg; in data set [1] (setting [10]), 2.4 mg/kg; in data set [4] (setting [11]), 0.4 mg/kg; in data set [4] (setting [12]), 1.6 mg/kg. In addition, the ED50 in data set [4] (setting [13]) came to 2.5 mg/kg; in data set [4] (setting [14]), 2.8 mg/kg. Besides, the “antiulcer activity when administered intraperitoneally” value in data set [5] (intraperitoneal, experimental tests) is “very interesting antiulcer activity”. Further, the duration of activity result in data set [5] is “very limited duration”. The figures for the LD50 at 192 h in data set [2] and in data set [3] were 87 mg/kg and 127 mg/kg, respectively. Besides, the “LD50 for intraperitoneal administration” value in data set [6] is reported as 115 mg/kg.

For `CCCCCCCCCC(=O)O[C@H](c1ccccc1)[C@H](C)N(C)CC=C1c2ccccc2CCc2ccccc21` (relative stereo) [ET 2001], the ED50 in data set [1] (setting [7]) turned out to be 0.5 mg/kg; in data set [1] (setting [8]), 0.5 mg/kg; in data set [1] (setting [9]) it was 0.7 mg/kg; in data set [1] (setting [10]) it was 1.3 mg/kg; in data set [4] (setting [11]), 0.4 mg/kg; in data set [4] (setting [12]) it was 0.9 mg/kg. Besides, the ED50 in data set [4] (setting [13]) came out at 1.2 mg/kg; in data set [4] (setting [14]), 2.1 mg/kg. Moreover, the LD50 at 192 h in data set [2] was found to be 510 mg/kg; in data set [3], 585 mg/kg.

As for `C[C@@H]([C@H](OC(=O)c1cccnc1)c1ccccc1)N(C)CC=C1c2ccccc2CCc2ccccc21` (relative stereo) [ET 2003], the ED50 in data set [1] (setting [7]) came out at 0.4 mg/kg; in data set [1] (setting [8]), 0.4 mg/kg; in data set [1] (setting [9]) it was 0.7 mg/kg; in data set [1] (setting [10]), 1.2 mg/kg; in data set [4] (setting [11]) it was 0.6 mg/kg; in data set [4] (setting [12]), 0.9 mg/kg. Besides, the ED50 came to 1.3 mg/kg in data set [4] (setting [13]) and 1.7 mg/kg in data set [4] (setting [14]). Also, the LD50 at 192 h in data set [2] amounted to 618 mg/kg; in data set [3], 580 mg/kg.
